Measured values reported in patent publication US11970498B2, “CDK2 inhibitors” (BLUEPRINT MEDICINES CORPORATION, priority 2021, dated 2024).
Read-outs that look alike come from different tables or passages of the source.

Columns and labels:
CDK2/Cyclin E = CDK2/Cyclin E (Homo sapiens, UniProt P24941); test: CDK2/Cyclin E biochemical phosphorylation assay (Caliper mobility shift)
Method: (§1) Inhibitory effects of the compounds of the disclosure were measured in biochemical assays that measure the enzymatic phosphorylation activity of CDK enzyme in complex of Cyclin proteins phosphorylates 7.5 micromolar fluorescently labelled peptide substrate, 5-FAM-QSPKKG-CONH2, (FL-Peptide 18, Perkin Elmer, 760362) in the presence of adenosine-5′-triphosphate (ATP) and varying concentrations of the test compound in 100 mM 2-[4-(2-hydroxyethyl)piperazin-1-yl] ethanesulfonic acid (HEPES), pH 7.5, 10 mM MgCl2, 0.015% Brij-35, 1 mM dithiothreitol (DTT), 1.0% dimethylsulfoxide (DMSO). Assays were performed at 1.0 mM ATP or at ATP Km of the CDK enzymes in complex with Cyclin proteins. Reactions proceeded until between 10% to 20% total peptides were phosphorylated at room temperature (25° C.) and were terminated with 35 mM 2,2′,2″,2′″-(ethane-1,2-diyldinitrilo)tetraacetic acid (EDTA). Product was detected using the Caliper mobility shift detection method where the phosphorylated peptide (product) and substrate were electrophoretically separated and measured. Percent activity was plotted against log concentration of compound and points to generate an apparent IC50. The following CDK enzymes in complex with different cyclin proteins were used in these assays: • CDK1/Cyclin B1, GST-tag (BPS, 40454), 1.5 nM used in the assay • CDK2/Cyclin E (Eurofins, 14-475), 1.25 nM used in the assays
(§2) For inhibitory activity against CDK2/Cyclin E mutant, the following designations are used: ≤10 nM=A; >10-20 nM=B; >20-30 nM=C; >30-100 nM=D and >100=E. For inhibition CDK1/Cyclin B1, GST-tag: ≥500 nM=A; <100-500 nM=B; <100 nM=C.

CDK1/Cyclin B1, GST-tag = molecular target: T1, CDK1/Cyclin B1, GST-tag (Homo sapiens, UniProt P06493); test: CDK1/Cyclin B1 biochemical phosphorylation assay (Caliper mobility shift); details: apparent IC50; 1.0 mM ATP or ATP Km; 1.5 nM enzyme; 25° C.
T1 construct: GST
T1 sequence (P06493 whole entry): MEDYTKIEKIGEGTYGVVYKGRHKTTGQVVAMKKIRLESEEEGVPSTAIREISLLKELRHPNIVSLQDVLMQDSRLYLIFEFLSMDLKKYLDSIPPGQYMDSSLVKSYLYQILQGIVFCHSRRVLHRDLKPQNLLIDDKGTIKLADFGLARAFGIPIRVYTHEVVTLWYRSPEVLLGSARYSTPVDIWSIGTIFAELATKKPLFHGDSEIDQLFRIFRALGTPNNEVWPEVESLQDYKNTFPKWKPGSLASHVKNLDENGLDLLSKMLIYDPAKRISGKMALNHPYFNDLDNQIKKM
T1 sequence (P14635 whole entry partner): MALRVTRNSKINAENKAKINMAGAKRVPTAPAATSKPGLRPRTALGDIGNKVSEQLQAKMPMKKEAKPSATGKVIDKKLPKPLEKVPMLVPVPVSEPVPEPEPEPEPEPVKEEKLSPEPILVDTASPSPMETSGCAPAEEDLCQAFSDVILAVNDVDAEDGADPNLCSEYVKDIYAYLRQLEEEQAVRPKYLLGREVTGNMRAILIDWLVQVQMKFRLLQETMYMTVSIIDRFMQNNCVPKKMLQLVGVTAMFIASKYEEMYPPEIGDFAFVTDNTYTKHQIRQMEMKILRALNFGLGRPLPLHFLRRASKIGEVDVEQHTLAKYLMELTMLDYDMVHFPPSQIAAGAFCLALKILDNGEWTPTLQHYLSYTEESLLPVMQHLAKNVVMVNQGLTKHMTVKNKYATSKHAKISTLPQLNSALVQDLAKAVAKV
Method: as §1, §2

[1] = apparent IC50, 1.0 mM ATP or ATP Km, 1.25 nM enzyme, 25° C., read-out: CDK2/cyclin E1 IC50

Compound | IC50 (CDK2/Cyclin E; additional compounds not disclosed herein, assays of Biological Example 1, read-out: inhibitory activity for CDK2/cyclin E1) | IC50 (CDK2/Cyclin E; [1]) | IC50 (CDK1/Cyclin B1, GST-tag)
CC(c1cccn(C)c1=O)n1ncc2ncc(Nc3cc(OC(F)F)[nH]n3)nc21 (stereo not drawn) | > 10000 nM | – | –
FC(F)Oc1cc(Nc2cnc3cnn(C[C@@H]4CC45CC5)c3n2)n[nH]1 (racemic) [Example 109, (R)-N-(5-(difluoromethoxy)-1H-pyrazol-3-yl)-1-(spiro[2.2]pentan-1-ylmethyl)-1H-pyrazolo[3,4-b]pyrazin-6-amine and (S)-N-(5-(difluoromethoxy)-1H-pyrazol-3-yl)-1-(spiro[2.2]pentan-1-ylmethyl)-1H-pyrazolo[3,4-b]pyrazin-6-amine] | – | ≤ 10 nM | 100 to 500 nM
CC[C@H]([C@H](C)O)n1ncc2ncc(Nc3cc(OC(F)F)[nH]n3)nc21 (single isomer, unassigned) [Example 5, (2S,3R)-3-(6-((5-(difluoromethoxy)-1H-pyrazol-3-yl)amino)-1H-pyrazolo[3,4-b]pyrazin-1-yl)pentan-2-ol or (2S,3S)-3-(6-((5-(difluoromethoxy)-1H-pyrazol-3-yl)amino)-1H-pyrazolo[3,4-b]pyrazin-1-yl)pentan-2-ol] | – | ≤ 10 nM | ≥ 500 nM
CC[C@@H]([C@H](C)O)n1ncc2ncc(Nc3cc(OC(F)F)[nH]n3)nc21 (single isomer, unassigned) [Example 6, (2S,3S)-3-(6-((5-(difluoromethoxy)-1H-pyrazol-3-yl)amino)-1H-pyrazolo[3,4-b]pyrazin-1-yl)pentan-2-ol or (2S,3R)-3-(6-((5-(difluoromethoxy)-1H-pyrazol-3-yl)amino)-1H-pyrazolo[3,4-b]pyrazin-1-yl)pentan-2-ol] | – | 30 to 100 nM | ≥ 500 nM
C[C@@H]([C@@H]1CCOC1)n1ncc2ncc(Nc3cc(OC(F)F)[nH]n3)nc21 (single isomer, unassigned) [Example 9] | – | ≤ 10 nM | ≥ 500 nM
C[C@H]([C@H]1CCOC1)n1ncc2ncc(Nc3cc(OC(F)F)[nH]n3)nc21 (single isomer, unassigned) [Example 10] | – | ≤ 10 nM | < 100 nM
C[C@H]([C@@H]1CCOC1)n1ncc2ncc(Nc3cc(OC(F)F)[nH]n3)nc21 (single isomer, unassigned) [Example 11] | – | 20 to 30 nM | ≥ 500 nM
C[C@@H]([C@H]1CCOC1)n1ncc2ncc(Nc3cc(OC(F)F)[nH]n3)nc21 (single isomer, unassigned) [Example 12] | – | 30 to 100 nM | ≥ 500 nM
C[C@@H](c1cc(F)ccn1)n1ncc2ncc(Nc3cc(OC(F)F)[nH]n3)nc21 (single isomer, unassigned) [Example 13, (S)—N-(5-(difluoromethoxy)-1H-pyrazol-3-yl)-1-(1-(4-fluoropyridin-2-yl)ethyl)-1H-pyrazolo[3,4-b]pyrazin-6-amine or (R)—N-(5-(difluoromethoxy)-1H-pyrazol-3-yl)-1-(1-(4-fluoropyridin-2-yl)ethyl)-1H-pyrazolo[3,4-b]pyrazin-6-amine] | – | ≤ 10 nM | < 100 nM
C[C@H](c1cc(F)ccn1)n1ncc2ncc(Nc3cc(OC(F)F)[nH]n3)nc21 (single isomer, unassigned) [Example 14, (R)—N-(5-(difluoromethoxy)-1H-pyrazol-3-yl)-1-(1-(4-fluoropyridin-2-yl)ethyl)-1H-pyrazolo[3,4-b]pyrazin-6-amine or (S)—N-(5-(difluoromethoxy)-1H-pyrazol-3-yl)-1-(1-(4-fluoropyridin-2-yl)ethyl)-1H-pyrazolo[3,4-b]pyrazin-6-amine] | – | 10 to 20 nM | ≥ 500 nM
FC[C@@H](c1ccccn1)n1ncc2ncc(Nc3cc(OC(F)F)[nH]n3)nc21 (single isomer, unassigned) [Example 15, (R)—N-(5-(difluoromethoxy)-1H-pyrazol-3-yl)-1-(2-fluoro-1-(pyridin-2-yl)ethyl)-1H-pyrazolo[3,4-b]pyrazin-6-amine or (S)—N-(5-(difluoromethoxy)-1H-pyrazol-3-yl)-1-(2-fluoro-1-(pyridin-2-yl)ethyl)-1H-pyrazolo[3,4-b]pyrazin-6-amine] | – | 30 to 100 nM | ≥ 500 nM
FC[C@H](c1ccccn1)n1ncc2ncc(Nc3cc(OC(F)F)[nH]n3)nc21 (single isomer, unassigned) [Example 16, (S)—N-(5-(difluoromethoxy)-1H-pyrazol-3-yl)-1-(2-fluoro-1-(pyridin-2-yl)ethyl)-1H-pyrazolo[3,4-b]pyrazin-6-amine or (R)—N-(5-(difluoromethoxy)-1H-pyrazol-3-yl)-1-(2-fluoro-1-(pyridin-2-yl)ethyl)-1H-pyrazolo[3,4-b]pyrazin-6-amine] | – | ≤ 10 nM | ≥ 500 nM
FC[C@H](c1cccnc1)n1ncc2ncc(Nc3cc(OC(F)F)[nH]n3)nc21 (single isomer, unassigned) [Example 18, (S)—N-(5-(difluoromethoxy)-1H-pyrazol-3-yl)-1-(2-fluoro-1-(pyridin-3-yl)ethyl)-1H-pyrazolo[3,4-b]pyrazin-6-amine or (R)—N-(5-(difluoromethoxy)-1H-pyrazol-3-yl)-1-(2-fluoro-1-(pyridin-3-yl)ethyl)-1H-pyrazolo[3,4-b]pyrazin-6-amine] | – | 20 to 30 nM | ≥ 500 nM
FC[C@@H](c1cccnc1)n1ncc2ncc(Nc3cc(OC(F)F)[nH]n3)nc21 (single isomer, unassigned) [Example 19, (R)—N-(5-(difluoromethoxy)-1H-pyrazol-3-yl)-1-(2-fluoro-1-(pyridin-3-yl)ethyl)-1H-pyrazolo[3,4-b]pyrazin-6-amine or (S)—N-(5-(difluoromethoxy)-1H-pyrazol-3-yl)-1-(2-fluoro-1-(pyridin-3-yl)ethyl)-1H-pyrazolo[3,4-b]pyrazin-6-amine] | – | ≤ 10 nM | 100 to 500 nM
O=C1C[C@H](Cn2ncc3ncc(Nc4cc(OC(F)F)[nH]n4)nc32)CN1 (single isomer, unassigned) [Example 20, (S)-4-((6-((5-(difluoromethoxy)-1H-pyrazol-3-yl)amino)-1H-pyrazolo[3,4-b]pyrazin-1-yl)methyl)pyrrolidin-2-one or (R)-4-((6-((5-(difluoromethoxy)-1H-pyrazol-3-yl)amino)-1H-pyrazolo[3,4-b]pyrazin-1-yl)methyl)pyrrolidin-2-one] | – | ≤ 10 nM | ≥ 500 nM
O=C1C[C@@H](Cn2ncc3ncc(Nc4cc(OC(F)F)[nH]n4)nc32)CN1 (single isomer, unassigned) [Example 21, (R)-4-((6-((5-(difluoromethoxy)-1H-pyrazol-3-yl)amino)-1H-pyrazolo[3,4-b]pyrazin-1-yl)methyl)pyrrolidin-2-one or (S)-4-((6-((5-(difluoromethoxy)-1H-pyrazol-3-yl)amino)-1H-pyrazolo[3,4-b]pyrazin-1-yl)methyl)pyrrolidin-2-one] | – | 20 to 30 nM | ≥ 500 nM
C[C@@H](c1cccnn1)n1ncc2ncc(Nc3cc(OC(F)F)[nH]n3)nc21 (single isomer, unassigned) [Example 24, (S)—N-(5-(difluoromethoxy)-1H-pyrazol-3-yl)-1-(1-(pyridazin-3-yl)ethyl)-1H-pyrazolo[3,4-b]pyrazin-6-amine or (R)—N-(5-(difluoromethoxy)-1H-pyrazol-3-yl)-1-(1-(pyridazin-3-yl)ethyl)-1H-pyrazolo[3,4-b]pyrazin-6-amine] | – | ≤ 10 nM | 100 to 500 nM
C[C@H](c1cccnn1)n1ncc2ncc(Nc3cc(OC(F)F)[nH]n3)nc21 (single isomer, unassigned) [Example 25, (R)—N-(5-(difluoromethoxy)-1H-pyrazol-3-yl)-1-(1-(pyridazin-3-yl)ethyl)-1H-pyrazolo[3,4-b]pyrazin-6-amine or (S)—N-(5-(difluoromethoxy)-1H-pyrazol-3-yl)-1-(1-(pyridazin-3-yl)ethyl)-1H-pyrazolo[3,4-b]pyrazin-6-amine] | – | 30 to 100 nM | ≥ 500 nM
N#C[C@@H]1C[C@H]1Cn1ncc2ncc(Nc3cc(OC(F)F)[nH]n3)nc21 (single isomer, unassigned) [Example 26, (1R,2R)-2-((6-((5-(difluoromethoxy)-1H-pyrazol-3-yl)amino)-1H-pyrazolo[3,4-b]pyrazin-1-yl)methyl)cyclopropane-1-carbonitrile or (1S,2S)-2-((6-((5-(difluoromethoxy)-1H-pyrazol-3-yl)amino)-1H-pyrazolo[3,4-b]pyrazin-1-yl)methyl)cyclopropane-1-carbonitrile] | – | > 100 nM | ≥ 500 nM
N#C[C@H]1C[C@@H]1Cn1ncc2ncc(Nc3cc(OC(F)F)[nH]n3)nc21 (single isomer, unassigned) [Example 27, (1S,2S)-2-((6-((5-(difluoromethoxy)-1H-pyrazol-3-yl)amino)-1H-pyrazolo[3,4-b]pyrazin-1-yl)methyl)cyclopropane-1-carbonitrile or (1R,2R)-2-((6-((5-(difluoromethoxy)-1H-pyrazol-3-yl)amino)-1H-pyrazolo[3,4-b]pyrazin-1-yl)methyl)cyclopropane-1-carbonitrile] | – | ≤ 10 nM | 100 to 500 nM
